*1 amine or outer side, *2 acyl side, *3 side chain or, on linkers, in order; H or OH if unused. Where a SMILES comes first, the peptide text is derived from it. Bridges are numbered along the chain shown (N, C = ends). [ ]: non-standard residue; d: D form. The star is where a group is joined. X16 = NC(=O)[C@H](CCCCNC(=O)CN1CCN2CCN3CCN(CC1)CC(=O)[O][Lu]([O]C(=O)C2)[O]C(=O)C3)NC(=O)CCC(=O)NCCCOCCOCCOCCCN*; X5 = NC(=O)[C@H](CCCCNC(=O)CN1CCN(CC(=O)O)CCN(CC(=O)O)CCN(CC(=O)O)CC1)NC(=O)CCC(=O)NCCCOCCOCCOCCCN*; X3 = O=C(O)CN1CCN(CC(=O)O)CCN(CC(=O)NCCCOCCOCCOCCCN*)CCN(CC(=O)O)CC1; DOTA = O=C(O)CN1CCN(CC(=O)O)CCN(CC(=O)*)CCN(CC(=O)O)CC1; Trp(5-Cl) = N[C@@H](Cc1c[nH]c2ccc(Cl)cc12)C(=O)O; Phe(3,4-Cl2) = N[C@@H](Cc1ccc(Cl)c(Cl)c1)C(=O)O; Pyridine(2,6-diCH2) = c1cc(C[*:1])nc(C[*:2])c1; 1Nal = N[C@@H](Cc1cccc2ccccc12)C(=O)O; Thz(5,5-Me2) = CC1(C)SCN[C@@H]1C(=O)O; mXylylene = c1cc(C[*:1])cc(C[*:2])c1; pXylylene = c1cc(C[*:2])ccc1C[*:1]; X7 = c1cc(CSCCN[*:2])cc(C[*:1])c1; Hyp = O=C(O)[C@@H]1C[C@@H](O)CN1; Pen = CC(C)(S)[C@H](N)C(=O)O; Suc = O=C(CCC(=O)[*:2])[*:1]; Ac6c = NC1(C(=O)O)CCCCC1; Thz = O=C(O)[C@@H]1CSCN1; Ac5c = NC1(C(=O)O)CCCC1; Api = NC1(C(=O)O)CCNCC1; Thp = NC1(C(=O)O)CCOCC1; Aib = CC(C)(N)C(=O)O
Biological target: T1, GIPR (CHO-K1-hGIPR cells) (Homo sapiens, UniProt P48546)
T1 construct: host or cells: CHO-K1
T1 sequence (P48546 22-466): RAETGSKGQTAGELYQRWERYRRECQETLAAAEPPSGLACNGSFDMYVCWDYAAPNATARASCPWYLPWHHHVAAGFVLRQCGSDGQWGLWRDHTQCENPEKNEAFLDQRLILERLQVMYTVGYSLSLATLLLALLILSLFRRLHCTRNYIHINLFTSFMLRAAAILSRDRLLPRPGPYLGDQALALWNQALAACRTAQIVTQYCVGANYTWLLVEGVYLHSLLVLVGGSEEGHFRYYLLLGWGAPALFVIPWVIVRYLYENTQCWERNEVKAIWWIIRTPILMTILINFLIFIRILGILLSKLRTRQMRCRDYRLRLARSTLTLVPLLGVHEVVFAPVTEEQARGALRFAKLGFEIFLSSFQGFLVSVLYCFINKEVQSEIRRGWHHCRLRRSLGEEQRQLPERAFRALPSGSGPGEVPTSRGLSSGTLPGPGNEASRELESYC
Test: FACS binding assay
Settings: competition with 20 nM GIP-057, 4° C. for 1 hour, read-out: pIC50 Category (converted)
Procedure, shortened: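 Read-out: flow cytometric median fluorescence intensity, APC/Cy5 channel, plotted vs peptide conc.; 4PL fit → EC50/pEC50 or IC50/pIC50. Cells: CHO-K1-hGIPR, Accutase-detached, 500.000/mL in PBS + 1% FCS. Detection: APC-streptavidin 1 μg/mL, 30 min, on ice.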

Row | Compound | IC50
1 | CC[C@H](C)[C@@H]1NC(=O)[C@H](CC(C)C)NC(=O)C2(CCOCC2)NC(=O)[C@@H](NC(=O)[C@@H](CC(C)C)NC(=O)[C@H](CCC(=O)O)NC(=O)[C@@H]2C[C@@H](O)CN2C(=O)[C@H](Cc2c[nH]c3ccc(Cl)cc23)NC(=O)[C@H](Cc2cccc3ccccc23)NC(=O)[C@H](CC(=O)O)NC(C)=O)CSCc2cccc(n2)CSC[C@@H](C(N)=O)NC1=O [GIP-380, Ac-Asp-1Ni-5Clw-Hyp-Glu-leu-[Cys(2Lut)-Thp-Leu-Ile-Cys]-NH2] (Ac-D[1Nal][Trp(5-Cl)][Hyp]E[dL]C[Thp]LIC-NH2; linker 7-11 via Pyridine(2,6-diCH2)) | < 10 nM
2 | CC[C@H](C)[C@@H]1NC(=O)[C@H](CC(C)C)NC(=O)C2(CCOCC2)NC(=O)[C@@H](NC(=O)[C@@H](CC(C)C)NC(=O)[C@H](CCC(=O)O)NC(=O)[C@@H]2C[C@@H](O)CN2C(=O)[C@H](Cc2ccc(Cl)c(Cl)c2)NC(=O)[C@H](Cc2ccc(Cl)c(Cl)c2)NC(=O)[C@H](CC(=O)O)NC(C)=O)CSCc2cccc(n2)CSC[C@@H](C(N)=O)NC1=O [GIP-323, Ac-Asp-Eaa-Eaa-Hyp-Glu-leu-[Cys(2Lut)-Thp-Leu-Ile-Cys]-NH2] (Ac-D[Phe(3,4-Cl2)][Phe(3,4-Cl2)][Hyp]E[dL]C[Thp]LIC-NH2; linker 7-11 via Pyridine(2,6-diCH2)) | 100 to 794 nM
3 | CC[C@H](C)[C@@H]1NC(=O)[C@H](CC(C)C)NC(=O)[C@H](C)NC(=O)[C@@H](NC(=O)[C@H](CC(C)C)NC(=O)[C@H](CCC(=O)O)NC(=O)[C@@H]2CCCN2C(=O)[C@H](Cc2c[nH]c3ccccc23)NC(=O)[C@H](Cc2c[nH]c3ccccc23)NC(=O)[C@H](CC(=O)O)NC(=O)[C@H](Cc2ccc(O)cc2)NC(=O)[C@@H](N)CCSC)CSCc2ccc(cc2)CSC[C@@H](C(N)=O)NC1=O [GIP-331] (H-MYDWWPELCALIC-NH2; linker 9-13 via pXylylene) | > 1000 nM
4 | CC[C@H](C)[C@@H]1NC(=O)[C@H](CC(C)C)NC(=O)C(C)(C)NC(=O)[C@@H](NC(=O)[C@H](CC(C)C)NC(=O)[C@H](CCC(=O)O)NC(=O)[C@@H]2CCCN2C(=O)[C@H](Cc2cccc3ccccc23)NC(=O)[C@H](Cc2c[nH]c3ccccc23)NC(C)=O)CSCc2cccc(c2)CSC[C@@H](C(=O)NCCCOCCOCCOCCCNC(=O)CCC(=O)N[C@@H](CCCCNC(=O)CN2CCN(CC(=O)O)CCN(CC(=O)O)CCN(CC(=O)O)CC2)C(N)=O)NC1=O [GIP-301, Ac-Trp-1Ni-Pro-Glu-Leu-[Cys(3MeBn)-Aib-Leu-Ile-Cys]-Ttds-Lys(DOTA)-NH2] (Ac-W[1Nal]PELC[Aib]LIC-X5; linker 6-10 via mXylylene) | > 1000 nM
5 | CC[C@H](C)[C@@H]1NC(=O)[C@H](CC(C)C)NC(=O)C(C)(C)NC(=O)[C@@H](NC(=O)[C@H](CC(C)C)NC(=O)[C@H](CCC(=O)O)NC(=O)[C@@H]2CCCN2C(=O)[C@H](Cc2c[nH]c3ccccc23)NC(=O)[C@H](Cc2c[nH]c3ccccc23)NC(=O)[C@H](CC(=O)O)NC(C)=O)CSCc2cccc(c2)CSC(C)(C)[C@@H](C(N)=O)NC1=O [GIP-339, Ac-Asp-Trp-Trp-Pro-Glu-Leu-[Cys(3MeBn)-Aib-Leu-Ile-Pen]-NH2] (Ac-DWWPELC[Aib]LI[Pen]-NH2; linker 7-11 via mXylylene) | > 1000 nM

Same assay, conditions: competition with 20 nM GIP-057, 4° C., 1 hour, read-out: pIC50 Category (converted)

Row | Compound | IC50
6 | CC[C@H](C)[C@@H]1NC(=O)[C@H](CC(C)C)NC(=O)C2(CCOCC2)NC(=O)[C@@H](NC(=O)[C@@H](CC(C)C)NC(=O)[C@H](CCC(=O)O)NC(=O)[C@H]2N(C(=O)[C@H](Cc3c[nH]c4ccc(Cl)cc34)NC(=O)[C@H](Cc3c[nH]c4ccccc34)NC(=O)[C@H](CC(=O)O)NC(C)=O)CSC2(C)C)CSCc2cccc(n2)CSC[C@@H](C(N)=O)NC1=O [GIP-215, Ac-Asp-Trp-5Clw-Dtc-Glu-leu-[Cys(2Lut)-Thp-Leu-Ile-Cys]-NH2] (Ac-DW[Trp(5-Cl)][Thz(5,5-Me2)]E[dL]C[Thp]LIC-NH2; linker 7-11 via Pyridine(2,6-diCH2)) | < 10 nM
7 | CC[C@H](C)[C@@H]1NC(=O)[C@H](CC(C)C)NC(=O)C2(CCNCC2)NC(=O)[C@@H](NC(=O)[C@@H](CC(C)C)NC(=O)[C@H](CCC(=O)O)NC(=O)[C@@H]2CCCN2C(=O)[C@H](Cc2c[nH]c3ccc(Cl)cc23)NC(=O)[C@H](Cc2c[nH]c3ccccc23)NC(=O)[C@H](CC(=O)O)NC(=O)CCC(=O)NCCCOCCOCCOCCCNC(=O)CN2CCN(CC(=O)O)CCN(CC(=O)O)CCN(CC(=O)O)CC2)CSCc2cccc(c2)CSCCNC1=O [GIP-088, DOTA-Ttds-Asp-Trp-5Clw-Pro-Glu-leu-[Cys(3MeBn)-Apc-Leu-Ile-AET]] ({X3-Suc}-DW[Trp(5-Cl)]PE[dL]C[Api]LI; linker 7-C via X7) | < 10 nM
8 | CC[C@H](C)[C@@H]1NC(=O)[C@H](CC(C)C)NC(=O)C2(CCOCC2)NC(=O)[C@@H](NC(=O)[C@@H](CC(C)C)NC(=O)[C@H](CCC(=O)O)NC(=O)[C@@H]2C[C@@H](O)CN2C(=O)[C@H](Cc2c[nH]c3ccc(Cl)cc23)NC(=O)[C@H](Cc2c[nH]c3ccccc23)NC(=O)[C@H](CCC(=O)O)NC(C)=O)CSCc2cccc(n2)CSC[C@@H](C(N)=O)NC1=O [GIP-191, Ac-Asn-Trp-5Clw-Hyp-Glu-leu-[Cys(2Lut)-Thp-Leu-Ile-Cys]-NH2] (Ac-EW[Trp(5-Cl)][Hyp]E[dL]C[Thp]LIC-NH2; linker 7-11 via Pyridine(2,6-diCH2)) | < 10 nM
9 | CC[C@H](C)[C@@H]1NC(=O)[C@H](CC(C)C)NC(=O)C2(CCOCC2)NC(=O)[C@@H](NC(=O)[C@@H](CC(C)C)NC(=O)[C@H](CCC(=O)O)NC(=O)[C@@H]2C[C@@H](O)CN2C(=O)[C@H](Cc2ccc(Cl)c(Cl)c2)NC(=O)[C@H](Cc2c[nH]c3ccccc23)NC(=O)[C@H](CC(=O)O)NC(C)=O)CSCc2cccc(n2)CSC[C@@H](C(N)=O)NC1=O [GIP-213, Ac-Asp-Trp-Eaa-Hyp-Glu-leu-[Cys(2Lut)-Thp-Leu-Ile-Cys]-NH2] (Ac-DW[Phe(3,4-Cl2)][Hyp]E[dL]C[Thp]LIC-NH2; linker 7-11 via Pyridine(2,6-diCH2)) | < 10 nM
10 | CC[C@H](C)[C@@H]1NC(=O)[C@H](CC(C)C)NC(=O)C2(CCN(C(=O)CN3CCN(CC(=O)O)CCN(CC(=O)O)CCN(CC(=O)O)CC3)CC2)NC(=O)[C@@H](NC(=O)[C@@H](CC(C)C)NC(=O)[C@H](CCC(=O)O)NC(=O)[C@@H]2C[C@@H](O)CN2C(=O)[C@H](Cc2c[nH]c3ccc(Cl)cc23)NC(=O)[C@H](Cc2c[nH]c3ccccc23)NC(=O)[C@H](CC(=O)O)NC(=O)CCC(=O)NCCCOCCOCCOCCCNC(=O)CN2CCN(CC(=O)O)CCN(CC(=O)O)CCN(CC(=O)O)CC2)CSCc2cccc(n2)CSC[C@@H](C(=O)N[C@@H](CCCCNC(=O)CN2CCN(CC(=O)O)CCN(CC(=O)O)CCN(CC(=O)O)CC2)C(N)=O)NC1=O [GIP-055, DOTA-Ttds-Asp-Trp-5Clw-Hyp-Glu-leu-[Cys(2Lut)-Apc(DOTA)-Leu-Ile-Cys]-Lys(DOTA)-NH2] ({X3-Suc}-DW[Trp(5-Cl)][Hyp]E[dL]C[Api](DOTA)LICK(DOTA)-NH2; linker 7-11 via Pyridine(2,6-diCH2)) | < 10 nM
11 | CC[C@H](C)[C@@H]1NC(=O)[C@H](CC(C)C)NC(=O)C2(CCOCC2)NC(=O)[C@@H](NC(=O)[C@@H](CC(C)C)NC(=O)[C@H](CCC(=O)O)NC(=O)[C@@H]2CSCN2C(=O)[C@H](Cc2c[nH]c3ccc(Cl)cc23)NC(=O)[C@H](Cc2c[nH]c3ccccc23)NC(=O)[C@H](CC(=O)O)NC(C)=O)CSCc2cccc(n2)CSC[C@@H](C(N)=O)NC1=O [GIP-222, Ac-Asp-Trp-5Clw-Eaz-Glu-leu-[Cys(2Lut)-Thp-Leu-Ile-Cys]-NH2] (Ac-DW[Trp(5-Cl)][Thz]E[dL]C[Thp]LIC-NH2; linker 7-11 via Pyridine(2,6-diCH2)) | < 10 nM
12 | CC[C@H](C)[C@@H]1NC(=O)[C@H](CC(C)C)NC(=O)C2(CCCC2)NC(=O)[C@@H](NC(=O)[C@@H](CC(C)C)NC(=O)[C@H](CCC(=O)O)NC(=O)[C@@H]2C[C@@H](O)CN2C(=O)[C@H](Cc2c[nH]c3ccc(Cl)cc23)NC(=O)[C@H](Cc2c[nH]c3ccccc23)NC(=O)[C@H](CC(=O)O)NC(C)=O)CSCc2cccc(n2)CSC[C@@H](C(N)=O)NC1=O [GIP-203, Ac-Asp-Trp-5Clw-Hyp-Glu-leu-[Cys(2Lut)-Eca-Leu-Ile-Cys]-NH2] (Ac-DW[Trp(5-Cl)][Hyp]E[dL]C[Ac5c]LIC-NH2; linker 7-11 via Pyridine(2,6-diCH2)) | < 10 nM

Same assay, conditions: pIC50 Category, competition with 20 nM GIP-057, 4° C., 1 hour

Row | Compound | IC50
13 | CC[C@H](C)[C@@H]1NC(=O)[C@H](CC(C)C)NC(=O)C2(CCCCC2)NC(=O)[C@@H](NC(=O)[C@@H](CC(C)C)NC(=O)[C@H](CCC(=O)O)NC(=O)[C@@H]2CCCN2C(=O)[C@H](Cc2cccc3ccccc23)NC(=O)[C@H](Cc2c[nH]c3ccccc23)NC(=O)[C@H](CC(=O)O)NC(C)=O)CSCc2cccc(c2)CSC[C@@H](C(=O)NCCCOCCOCCOCCCNC(=O)CCC(=O)N[C@@H](CCCCNC(=O)CN2CCN3CCN4CCN(CC2)CC(=O)[O][Lu]([O]C(=O)C3)[O]C(=O)C4)C(N)=O)NC1=O [GIP-173, Ac-Asp-Trp-1Ni-Pro-Glu-leu-[Cys(3MeBn)-Egz-Leu-Ile-Cys]-Ttds-Lys(LuDOTA)-NH2] (Ac-DW[1Nal]PE[dL]C[Ac6c]LIC-X16; linker 7-11 via mXylylene) | 10 to 79.4 nM

From patent US20250296971A1, “GASTRIC INHIBITORY PEPTIDE RECEPTOR LIGANDS” (priority 2021, published 2025)
